pIC50: −log10 of the molar value.
Tested on: 857933-349-R-J2-PDC complex spheroid viability
Assay: Anticancer human tumor 857933-349-R-J2-PDC patient-derived colon adenocarcinoma cell line growth inhibition [POLQ]
Conditions: for pIC50: curve of first compound; for viability, T/C: stronger effect = lower value
Procedure: Multicellular complex tumor spheroid response to Polymerase (POL) inhibitors (novobiocin, ART-558, RP6685) in combination with a variety of drugs and investigational agents in selected tumor cell lines
The POL inhibitors (novobiocin, ART-558, and RP6685) were evaluated both individually and in combination with standard of care and investigational anticancer small molecules within a complex spheroid model of solid tumors. . Complex spheroids include a stromal component modeled by human endothelial cells (HUVEC) and fibroblasts modeled by human mesenchymal stem cells (MSCs). The concentration ranges selected for each drug and investigational agent were based upon clinically achievable concentrations if the clinical Cmax of the agent was known.
Compounds. The drugs and investigational agents: novobiocin (NSC847541), ART-558 (NSC835418), RP-6685 (NSC848927), peposertib (NSC802822), ceralasertib (NSC780249), elimusertib (NSC800525), camonsertib (NSC841442), AZD-1390 (NSC803789), olaparib (NSC753686), talazoparib (NSC767125), rucaparib (NSC756644), sotorasib (NSC818433), MRTX-1133 (NSC836407), SN-38 (NSC673596), topotecan (NSC609699), epotoside (NSC141540), doxorubicin (NSC123127), gemcitabine (NSC613327), 5-fluorouracil (NSC19893), paclitaxel (NSC125973), vemurafenib (NSC761431), MSA-2 (NSC828583), SN-011 (NSC837082), adavosertib (NSC754352), prexasertib (NSC758257), carboplatin (NSC241240) and oxaliplatin (NSC266046), were obtained from the National Cancer Institute (NCI) Developmental Therapeutics Program Chemical Repository (21). The FDA-approved anticancer drug set is available from the Developmental Therapeutics Program at https://dtp.cancer.gov/organization/dscb/obtaining/. […] The stock solutions were prepared in dimethyl sulfoxide (DMSO, Sigma-Aldrich, St. Louis, MO, cat. D2650), except for the platinum compounds which were prepared in saline (Quality Biological, Gaithersburg, MD, cat. 114-055-101), at 800-fold the tested concentration and stored at -70 degrees C prior to their use. All drugs and investigational agents were tested over a range starting from a high concentration at or near the clinical Cmax and decreasing in half-log increments. If the clinical Cmax for an agent had not been determined, the highest concentration tested was 10 microM, except for SN-38, which was tested at a high concentration of 1 microM.
Cell Culture. All cells were maintained in an incubator at 37 degrees C and 5% CO2 with 95% humidity. The PDC lines were cultured according to standard operating procedures established by the NCI PDMR (https://pdmr.cancer.gov). Table 3 of the manuscript, lists the cell lines along with the number of the three cell types plated to form the mct-spheroids and media for tumor cell growth. After thawing, all PDC lines, except 997537-175-T-J1-PDC and 415267-285-R-J2-PDC, were cultured in Matrigel-coated flasks prepared with a working solution of 1X Ham's F-12 nutrient mix, without supplementation (Thermo Fisher Scientific, cat. 11765054), 100 U/mL penicillin-streptomycin (Thermo Fisher Scientific, cat. 15140122), and 2.5% Matrigel (Corning Inc., Corning, NY, cat. 354248) for the first three passages. The two PDC lines 997537-175-T-J1-PDC and 415267-285-R-J2-PDC were cultured on uncoated flasks. The 857933-349-R-J2-PDC line was cultured in 6C/Colon 1B media containing advanced DMEM/F-12 (Thermo Fisher Scientific, cat. 12634028), 10 mM HEPES (Thermo Fisher Scientific, cat. 15630080), 1X GlutaMAX supplement (Thermo Fisher Scientific, cat. 35050061), 0.1 mg/mL primocin (InvivoGen, San Diego, CA, cat. ant-pm-2), 10% defined fetal bovine serum, heat inactivated (HyClone Laboratories Inc., Logan, UT, cat. SH30070.03HI), 50% L-WRN conditioned media (ATCC, cat. CRL-3276), 1.25 mM N-Acetyl-L-cysteine (Sigma-Aldrich, cat. A9165), 10 mM nicotinamide (Sigma-Aldrich, cat. N0636), 1X B-27 supplement (Thermo Fisher Scientific, cat. 17504044), 1X N-2 supplement (Thermo Fisher Scientific, cat. […]

[1] = second compound 0.0316 µM, first compound 0.0316 µM
[2] = second compound 0.0316 µM, first compound 0.1 µM
[3] = second compound 0.0316 µM, first compound 0.316 µM
[4] = second compound 0.0316 µM, first compound 1 µM
[5] = second compound 0.0316 µM, first compound 3.16 µM
[6] = second compound 0.0316 µM, first compound 10 µM
[7] = second compound 0.1 µM, first compound 0.0316 µM
[8] = second compound 0.1 µM, first compound 0.1 µM
[9] = second compound 0.1 µM, first compound 0.316 µM
[10] = second compound 0.1 µM, first compound 1 µM
[11] = second compound 0.1 µM, first compound 3.16 µM
[12] = second compound 0.1 µM, first compound 10 µM
[13] = second compound 0.316 µM, first compound 0.0316 µM
[14] = second compound 0.316 µM, first compound 0.1 µM
[15] = second compound 0.316 µM, first compound 0.316 µM
[16] = second compound 0.316 µM, first compound 1 µM
[17] = second compound 0.316 µM, first compound 3.16 µM
[18] = second compound 0.316 µM, first compound 10 µM
[19] = second compound 1 µM, first compound 0.0316 µM
[20] = second compound 1 µM, first compound 0.1 µM
[21] = second compound 1 µM, first compound 0.316 µM
[22] = second compound 1 µM, first compound 1 µM
[23] = second compound 1 µM, first compound 3.16 µM
[24] = second compound 1 µM, first compound 10 µM
[25] = second compound 3.16 µM, first compound 0.0316 µM
[26] = second compound 3.16 µM, first compound 0.1 µM
[27] = second compound 3.16 µM, first compound 0.316 µM
[28] = second compound 3.16 µM, first compound 1 µM
[29] = second compound 3.16 µM, first compound 3.16 µM
[30] = second compound 3.16 µM, first compound 10 µM
[31] = second compound 10 µM, first compound 0.0316 µM
[32] = second compound 10 µM, first compound 0.1 µM
[33] = second compound 10 µM, first compound 0.316 µM
[34] = second compound 10 µM, first compound 1 µM
[35] = second compound 10 µM, first compound 3.16 µM
[36] = second compound 10 µM, first compound 10 µM
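Also: spheroids exposed to compounds for seven days before readout.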

With CC1COCCN1c1cc(C2(O)CC3CCC(C2)O3)c2cnn(-c3ccn[nH]3)c2n1 (centres undefined) + Nc1ccc(C#CCN(C(=O)Cc2ncc(C(F)(F)F)cc2C(F)(F)F)c2ccc(F)cc2)nn1 as the compound, how does the pIC50 (second compound 0.0316 µM) read?
The pIC50 was 6.06.

And the pIC50 (second compound 0.1 µM)?
The pIC50 was under 5.00.

What about the pIC50 (second compound 0.316 µM) of the same compound?
The pIC50 was 6.10.

What about the pIC50 (second compound 1 µM) of the same compound?
The pIC50 was 6.18.

What about the pIC50 (second compound 3.16 µM) of the same compound?
Its pIC50 is under 5.00.

What about the pIC50 (second compound 10 µM) of the same compound?
The pIC50 was under 5.00.

And the viability, T/C [1]?
The viability, T/C was 72.7%.

And the viability, T/C [2]?
Its viability, T/C is 76.5%.

What about the viability, T/C [3] of the same compound?
The viability, T/C was 60.7%.

And the viability, T/C [4]?
Its viability, T/C is 50.3%.

What about the viability, T/C [5] of the same compound?
The viability, T/C was 47.4%.

And the viability, T/C [6]?
The viability, T/C was 47.6%.

And the viability, T/C [7]?
Its viability, T/C is 74.4%.

And the viability, T/C [8]?
Its viability, T/C is 74.7%.

And the viability, T/C [9]?
The viability, T/C was 52.7%.

And the viability, T/C [10]?
Its viability, T/C is 53.1%.

What about the viability, T/C [11] of the same compound?
The viability, T/C was 45.5%.

What about the viability, T/C [12] of the same compound?
The viability, T/C was 59%.

And the viability, T/C [13]?
Its viability, T/C is 77.9%.

And the viability, T/C [14]?
Its viability, T/C is 63.2%.

What about the viability, T/C [15] of the same compound?
Its viability, T/C is 58.2%.

What about the viability, T/C [16] of the same compound?
The viability, T/C was 46.2%.

And the viability, T/C [17]?
Its viability, T/C is 44.7%.

What about the viability, T/C [18] of the same compound?
Its viability, T/C is 40.1%.

And the viability, T/C [19]?
The viability, T/C was 78%.

What about the viability, T/C [20] of the same compound?
Its viability, T/C is 70.4%.

What about the viability, T/C [21] of the same compound?
Its viability, T/C is 61.8%.

And the viability, T/C [22]?
Its viability, T/C is 40.9%.

And the viability, T/C [23]?
Its viability, T/C is 40%.

And the viability, T/C [24]?
Its viability, T/C is 49.2%.

What about the viability, T/C [25] of the same compound?
The viability, T/C was 79.2%.

And the viability, T/C [26]?
The viability, T/C was 72.3%.

And the viability, T/C [27]?
Its viability, T/C is 61.4%.

What about the viability, T/C [28] of the same compound?
The viability, T/C was 44.1%.

What about the viability, T/C [29] of the same compound?
Its viability, T/C is 49.9%.

What about the viability, T/C [30] of the same compound?
Its viability, T/C is 56.4%.

And the viability, T/C [31]?
Its viability, T/C is 78.2%.

And the viability, T/C [32]?
Its viability, T/C is 58.9%.

And the viability, T/C [33]?
The viability, T/C was 62.1%.

What about the viability, T/C [34] of the same compound?
The viability, T/C was 54%.

What about the viability, T/C [35] of the same compound?
Its viability, T/C is 48.6%.

What about the viability, T/C [36] of the same compound?
Its viability, T/C is 56%.

Which results are given for CCc1cc2c(N3CCc4c(cc(Cn5ccnc5)cc4-c4cn(C)nc4C(F)(F)F)C3=O)ccnc2c(OC)n1 + Nc1ccc(C#CCN(C(=O)Cc2ncc(C(F)(F)F)cc2C(F)(F)F)c2ccc(F)cc2)nn1?
pIC50 (second compound 0.0316 µM): < 5.00; pIC50 (second compound 0.1 µM): < 5.00; pIC50 (second compound 0.316 µM): < 5.00; pIC50 (second compound 1 µM): < 5.00; pIC50 (second compound 3.16 µM): < 5.00; pIC50 (second compound 10 µM): 5.22; viability, T/C [1]: 93.9%; viability, T/C [2]: 96.4%; viability, T/C [3]: 76.3%; viability, T/C [4]: 87.7%; viability, T/C [5]: 59.2%; viability, T/C [6]: 59.2%; viability, T/C [7]: 97.3%; viability, T/C [8]: 101%; viability, T/C [9]: 94.5%; viability, T/C [10]: 93%; viability, T/C [11]: 70%; viability, T/C [12]: 58.5%; viability, T/C [13]: 82%; viability, T/C [14]: 86%; viability, T/C [15]: 94.5%; viability, T/C [16]: 84.1%; viability, T/C [17]: 77%; viability, T/C [18]: 55.1%; viability, T/C [19]: 97.6%; viability, T/C [20]: 90.2%; viability, T/C [21]: 95.1%; viability, T/C [22]: 77.2%; viability, T/C [23]: 71.1%; viability, T/C [24]: 65.3%; viability, T/C [25]: 97.6%; viability, T/C [26]: 89.9%; viability, T/C [27]: 104%; viability, T/C [28]: 83%; viability, T/C [29]: 68.3%; viability, T/C [30]: 62.8%; viability, T/C [31]: 83.5%; viability, T/C [32]: 77.3%; viability, T/C [33]: 79.6%; viability, T/C [34]: 75.7%; viability, T/C [35]: 54.4%; viability, T/C [36]: 46.6%

From PubChem BioAssay AID1963836 (Molecular Pharmacology Branch, DTP, NCI, 2024)
